Measured values reported in PubChem BioAssay AID330 (DTP/NCI, 2004).
“And” between values parts separate entries of the source, which are not always exact repeats. Equal entries are not always repeated. Inconclusive results and toxic doses are left out.

System: P388 leukemia ip, CD2F1 mice, survival T/C
Experiment: NCI In Vivo Anticancer Drug Screen. Data for tumor model P388 Leukemia (intraperitoneal) in CD2F1 (CDF1) mice
Settings: endpoint: median survival time, higher = longer survival
Procedure, shortened: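 Mice carrying the transplanted tumor received test compound or vehicle. Survival was recorded in each group, and the value is the treated-group measurement divided by that of the vehicle-treated control group.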

[1] = dose: 50.0 mg/kg/injection, schedule: Q01DX009 (ip), vehicle: saline
[2] = dose: 100.0 mg/kg/injection, schedule: Q01DX009 (ip), vehicle: saline
[3] = dose: 60.0 mg/kg/injection, schedule: Q01DX005 (ip), vehicle: saline
[4] = dose: 120.0 mg/kg/injection, schedule: Q01DX005 (ip), vehicle: saline
[5] = dose: 200.0 mg/kg/injection, schedule: Q01DX009 (ip), vehicle: saline
[6] = dose: 50.0 mg/kg/injection, schedule: Q01DX005 (ip), vehicle: Klucel (hydroxypropylcellulose) (HPC)
[7] = dose: 100.0 mg/kg/injection, schedule: Q01DX005 (ip), vehicle: Klucel (hydroxypropylcellulose) (HPC)
[8] = dose: 200.0 mg/kg/injection, schedule: Q01DX005 (ip), vehicle: Klucel (hydroxypropylcellulose) (HPC)

Cc1ccccc1/C(=C/c1ccc([N+](=O)[O-])cc1)C(=O)O
T/C (dose: 60.0 mg/kg/injection, schedule: Q01DX005 (ip), vehicle: Klucel (hydroxypropylcellulose) (HPC)): 108 % of control | T/C (dose: 120.0 mg/kg/injection, schedule: Q01DX005 (ip), vehicle: Klucel (hydroxypropylcellulose) (HPC)): 108 % of control | T/C (dose: 240.0 mg/kg/injection, schedule: Q01DX005 (ip), vehicle: Klucel (hydroxypropylcellulose) (HPC)): 112 % of control

CNc1c(C(N)=O)nnn1Cc1ccc(OC)cc1
T/C (dose: 100.0 mg/kg/injection, schedule: Q04DX002 (ip), vehicle: Klucel (hydroxypropylcellulose) (HPC)): 100 % of control | T/C (dose: 200.0 mg/kg/injection, schedule: Q04DX002 (ip), vehicle: Klucel (hydroxypropylcellulose) (HPC)): 100 % of control | T/C (dose: 400.0 mg/kg/injection, schedule: Q04DX002 (ip), vehicle: Klucel (hydroxypropylcellulose) (HPC)): 103 % of control

CCOC(=O)CCc1[nH]c(=S)ncc1C(=O)OCC
T/C (dose: 7.5 mg/kg/injection, schedule: Q01DX009 (ip), vehicle: saline with Tween-80): 96 % of control | T/C (dose: 15.0 mg/kg/injection, schedule: Q01DX009 (ip), vehicle: saline with Tween-80): 101 % of control | T/C (dose: 30.0 mg/kg/injection, schedule: Q01DX009 (ip), vehicle: saline with Tween-80): 104 % of control

c1ccc2c(NCCCCCCCCCCCCCCCCNc3c4ccccc4nc4ccccc34)c3ccccc3nc2c1
T/C (dose: 0.62 mg/kg/injection, schedule: Q01DX009 (ip), vehicle: other): 98 % of control | T/C (dose: 1.25 mg/kg/injection, schedule: Q01DX009 (ip), vehicle: other): 101 % of control | T/C (dose: 2.5 mg/kg/injection, schedule: Q01DX009 (ip), vehicle: other): 105 % of control | T/C (dose: 5.0 mg/kg/injection, schedule: Q01DX009 (ip), vehicle: other): 109 % of control | T/C (dose: 10.0 mg/kg/injection, schedule: Q01DX009 (ip), vehicle: other): 108 % of control

Cc1[nH]c2ccc(CN)cc2c1CC(N)C(=O)O (stereo not given)
T/C (dose: 100.0 mg/kg/injection, schedule: Q01DX001 (ip), vehicle: saline): 110 % of control | T/C (dose: 200.0 mg/kg/injection, schedule: Q01DX001 (ip), vehicle: saline): 104 % of control | T/C (dose: 400.0 mg/kg/injection, schedule: Q01DX001 (ip), vehicle: saline): 107 % of control

CCCCCCC(=O)CC(SCCS)c1ccc(Cl)c(Cl)c1 (stereo not given)
T/C [1]: 102 % of control | T/C [2]: 89 % of control

CCC(CC)C(Nc1nncs1)Nc1nncs1
T/C (dose: 50.0 mg/kg/injection, schedule: Q01DX005 (ip), vehicle: saline with Tween-80): 90 % of control | T/C (dose: 100.0 mg/kg/injection, schedule: Q01DX005 (ip), vehicle: saline with Tween-80): 112 % of control | T/C (dose: 200.0 mg/kg/injection, schedule: Q01DX005 (ip), vehicle: saline with Tween-80): 116 % of control

CNC(=N)c1ccc(NC(=N)c2ccc(NC(=N)c3ccc(NC(=N)c4ccc(C(=N)NC)cc4)cc3)cc2)cc1
T/C (dose: 9.0 mg/kg/injection, schedule: Q01DX009 (ip), vehicle: saline with Tween-80): 154 % of control | T/C (dose: 13.0 mg/kg/injection, schedule: Q01DX009 (ip), vehicle: saline with Tween-80): 190 % of control | T/C (dose: 20.0 mg/kg/injection, schedule: Q01DX009 (ip), vehicle: saline with Tween-80): 254 % of control

C=C(C)C1Oc2ccc(C(C)=O)cc2C1OC(=O)/C(C)=C\C (stereo not given)
T/C (dose: 22.5 mg/kg/injection, schedule: Q01DX009 (ip), vehicle: other): 107 % of control | T/C (dose: 45.0 mg/kg/injection, schedule: Q01DX009 (ip), vehicle: other): 111 % of control | T/C (dose: 90.0 mg/kg/injection, schedule: Q01DX009 (ip), vehicle: other): 107 % of control | T/C (dose: 180.0 mg/kg/injection, schedule: Q01DX009 (ip), vehicle: other): 107 % of control

O=C(CC(Sc1ccccc1)c1cccc([N+](=O)[O-])c1)c1ccccc1 (stereo not given)
T/C (dose: 50.0 mg/kg/injection, schedule: Q01DX009 (ip), vehicle: Klucel (hydroxypropylcellulose) (HPC)): 93 % of control | T/C (dose: 100.0 mg/kg/injection, schedule: Q01DX009 (ip), vehicle: Klucel (hydroxypropylcellulose) (HPC)): 95 % of control

COc1cc(O)c(C/C=C/c2ccccc2)cc1O
T/C (dose: 2.5 mg/kg/injection, schedule: Q01DX009 (ip), vehicle: saline with Tween-80): 102 % of control | T/C (dose: 5.0 mg/kg/injection, schedule: Q01DX009 (ip), vehicle: saline with Tween-80): 105 % of control | T/C (dose: 10.0 mg/kg/injection, schedule: Q01DX009 (ip), vehicle: saline with Tween-80): 103 % of control

CN1C(C)(C)CC(O)CC1(C)C
T/C [3]: 102 % of control | T/C [4]: 102 % of control

O=Nc1c2ccccc2c(NO)c2ccccc12
T/C (dose: 100.0 mg/kg/injection, schedule: Q04DX002 (ip), vehicle: saline with Tween-80): 94 % of control | T/C (dose: 200.0 mg/kg/injection, schedule: Q04DX002 (ip), vehicle: saline with Tween-80): 92 % of control | T/C (dose: 400.0 mg/kg/injection, schedule: Q04DX002 (ip), vehicle: saline with Tween-80): 98 % of control

CCCCOC(=O)c1ccc(NC(=O)Nc2ccccc2OC)cc1
T/C (dose: 25.0 mg/kg/injection, schedule: Q04DX003 (ip), vehicle: saline with Tween-80): 91 % of control | T/C (dose: 50.0 mg/kg/injection, schedule: Q04DX003 (ip), vehicle: saline with Tween-80): 87 % of control

CCO/C=N\Nc1ccc2nnc(Cl)n2n1
T/C [1]: 92 % of control | T/C [2]: 103 % of control | T/C [5]: 93 % of control

O=C(O)Cc1cc(Br)c(O)c(Br)c1
T/C (dose: 12.5 mg/kg/injection, schedule: Q01DX009 (ip), vehicle: distilled water + Tween-80): 107 % of control | T/C (dose: 25.0 mg/kg/injection, schedule: Q01DX009 (ip), vehicle: distilled water + Tween-80): 107 % of control | T/C (dose: 50.0 mg/kg/injection, schedule: Q01DX009 (ip), vehicle: distilled water + Tween-80): 98 % of control | T/C (dose: 100.0 mg/kg/injection, schedule: Q01DX009 (ip), vehicle: distilled water + Tween-80): 98 % of control | T/C (dose: 200.0 mg/kg/injection, schedule: Q01DX009 (ip), vehicle: distilled water + Tween-80): 100 % of control

COc1ccc(S(=O)c2coc3ccccc3c2=O)cc1 (stereo not given)
T/C (dose: 60.0 mg/kg/injection, schedule: Q01DX005 (ip), vehicle: saline with Tween-80): 99 % of control | T/C (dose: 120.0 mg/kg/injection, schedule: Q01DX005 (ip), vehicle: saline with Tween-80): 100 % of control | T/C (dose: 240.0 mg/kg/injection, schedule: Q01DX005 (ip), vehicle: saline with Tween-80): 100 % of control

CCOP(=O)(Nc1ccc2c(c1)Cc1c-2cc(Br)c(NC(C)=O)c1Br)OCC
T/C [6]: 94 % of control | T/C [7]: 94 % of control | T/C [8]: 96 % of control

CC12CCC3C(CCC4=CC(OC5OCC(O)C(O)C5O)CCC43C=O)C1(O)CCC2C1=CC(=O)OC1 (stereo not given)
T/C (dose: 1.0 mg/kg/injection, schedule: Q01DX009 (ip), vehicle: Klucel (hydroxypropylcellulose) (HPC)): 99 % of control | T/C (dose: 2.0 mg/kg/injection, schedule: Q01DX009 (ip), vehicle: Klucel (hydroxypropylcellulose) (HPC)): 105 % of control | T/C (dose: 4.0 mg/kg/injection, schedule: Q01DX009 (ip), vehicle: Klucel (hydroxypropylcellulose) (HPC)): 97 % of control | T/C (dose: 8.0 mg/kg/injection, schedule: Q01DX009 (ip), vehicle: Klucel (hydroxypropylcellulose) (HPC)): 108 % of control

C[CH2][Sn]=[O].c1cc[c]([Ge]([c]2ccccc2)[c]2ccccc2)cc1
T/C (dose: 25.0 mg/kg/injection, schedule: Q01DX009 (ip), vehicle: saline): 96 % of control | T/C [1]: 88 % of control and 93 % of control and 96 % of control | T/C [2]: 101 % of control and 88 % of control | T/C [5]: 121 % of control and 88 % of control and 96 % of control

O=[N+]([O-])c1ccc(N/N=C(\CBr)c2ccccc2)c([N+](=O)[O-])c1
T/C (dose: 100.0 mg/kg/injection, schedule: Q01DX001 (ip), vehicle: saline with Tween-80): 91 % of control | T/C (dose: 200.0 mg/kg/injection, schedule: Q01DX001 (ip), vehicle: saline with Tween-80): 87 % of control | T/C (dose: 400.0 mg/kg/injection, schedule: Q01DX001 (ip), vehicle: saline with Tween-80): 87 % of control

Cn1c(=O)c2c(nnc(-c3ccc(Cl)c(Cl)c3)[n+]2[O-])n(C)c1=O
T/C (dose: 25.0 mg/kg/injection, schedule: Q01DX001 (ip), vehicle: Klucel (hydroxypropylcellulose) (HPC)): 103 % of control

CC(=O)OCCS(=O)Cc1ccccc1 (stereo not given)
T/C [3]: 92 % of control | T/C [4]: 94 % of control | T/C (dose: 240.0 mg/kg/injection, schedule: Q01DX005 (ip), vehicle: saline): 100 % of control

COc1ccc(C(C)c2cc3c(cc2OC)OCO3)cc1C (stereo not given)
T/C (dose: 25.0 mg/kg/injection, schedule: Q01DX005 (ip), vehicle: Klucel (hydroxypropylcellulose) (HPC)): 104 % of control and 105 % of control | T/C [6]: 100 % of control and 109 % of control and 120 % of control | T/C [7]: 98 % of control and 105 % of control and 111 % of control | T/C [8]: 100 % of control and 110 % of control and 120 % of control | T/C (dose: 400.0 mg/kg/injection, schedule: Q01DX005 (ip), vehicle: Klucel (hydroxypropylcellulose) (HPC)): 100 % of control
